Data reported in patent publication US20130058922A1 (priority 2009, published 2013).
“And” between values parts separate entries of the source, which are not always exact repeats. Identical values can stand only once. Like-named read-outs stand apart in the source and are kept apart here.

Legend:
[1] = tested on: circulating tumour cells (CTCs) in the blood; conditions: in vitro; tumour cells in blood of 13 patients (breast, colon, prostate, pancreas cancer); MAINTRAC
Excerpt: This method allows the detection of smallest amounts of tumour cells in blood and other body fluids (Pachmann K., Clement J. H., Schneider C.-P., Willen B., Camara O., Pachmann U., Hoeffken K., Standardized quantification of circulating peripheral tumour cells from lung and breast cancer. Clin. Chem. Lab-Med., 2005, 43; 617-627).

[2] = tested on: circulating tumour cells (CTCs)
Method: (§1) Depending on the dose, the infusion therapy was applied for 3-5 hours.

[3] = tested on: leukocytes / dysfunctional leukocyte precursors
Method: as §1

[4] = Clinical observation of patients during and after choline infusion therapy (vital parameters, tolerability, condition)
[5] = Gastric CA, one i.v. choline therapy for 3 to 5 hours, MainTrac
[6] = Histiocytoma, one i.v. choline therapy for 3 to 5 hours, MainTrac
[7] = Prostate CA, one i.v. choline therapy for 3 to 5 hours, MainTrac
[8] = mean over all tumour types of Table 1, one i.v. choline therapy for 3 to 5 hours, MainTrac
[9] = mean of Table 2 leukaemia measurements, one i.v. choline therapy for 3 to 5 hours

C[N+](C)(C)CCO [choline]
cytosensitivity to choline [1]: up to 95%
CTCs after therapy ([2]; Gastric CA, after one i.v. choline therapy for 3 to 5 hours, MainTrac): 1.75 million tumour cells
CTCs After − before Difference (Δ) [2, 5]: −12.25 million tumour cells
CTCs After − before Δ % before [2, 5]: −87.00%
CTCs after therapy ([2]; Histiocytoma, after one i.v. choline therapy for 3 to 5 hours, MainTrac): 65.00 million tumour cells
CTCs After − before Difference (Δ) [2, 6]: −307.50 million tumour cells
CTCs After − before Δ % before [2, 6]: −82.00%
CTCs after therapy ([2]; Pancreas CA, after one i.v. choline therapy for 3 to 5 hours, MainTrac): 3.00 million tumour cells and 2.75 million tumour cells
CTCs after therapy ([2]; Prostate CA, after one i.v. choline therapy for 3 to 5 hours, MainTrac): 8.75 million tumour cells
CTCs After − before Difference (Δ) [2, 7]: −3.75 million tumour cells
CTCs After − before Δ % before [2, 7]: −30.00%
After − before Δ% before (after 4 weeks), mean values ([2]; Table 3 mean of leukaemia patient leukocytes and breast cancer patient CTCs, 4 weeks later): −40.00%
After − before Δ% before, mean values ([2]; Table 3 mean of leukaemia patient leukocytes and breast cancer patient CTCs, directly after therapy): −30.00%
MainTrac (CTCs), After 4 weeks value ([2]; breast cancer patient, after another 4 weeks without therapy): 5.25 million tumour cells
MainTrac (CTCs), After − before Δ% before (after 4 weeks) ([2]; breast cancer patient, after another 4 weeks without therapy, relative to initial value): −72.00%
CTCs after therapy, mean value ([2]; mean over all tumour types of Table 1, after one i.v. choline therapy for 3 to 5 hours, MainTrac): 9.75 million tumour cells
CTCs After − before Difference (Δ), mean value [2, 8]: −37 million tumour cells and −37.00 million tumour cells
CTCs After − before Δ % before, mean value [2, 8]: −54.6%
Leukocytes, After 4 weeks value ([3]; leukaemia patient blood, 4 weeks after one i.v. choline therapy): 281.60
Leukocytes, After − before Δ% before (after 4 weeks) ([3]; leukaemia patient blood, 4 weeks after one i.v. choline therapy, compared to the initial value): −8%
Leukocytes after therapy, mean values ([3]; mean of Table 2 leukaemia measurements, after one i.v. choline therapy for 3 to 5 hours): 228.53
Leukocytes After − before Difference (Δ), mean values [3, 9]: −25.77
Leukocytes After − before Δ % before, mean values [3, 9]: −10.00%
changes in vital parameters (RR, pulse, SO2, ECG, temperature) ([4]; 9 tumour patients, during and subsequent to i.v. infusion therapy of 3-5 hours): no patient showed relevant changes in the vital parameters
tolerability of the infusion therapy ([4]; 9 tumour patients, i.v. infusion for 3-5 hours): very well tolerated
side effects ([4]; in some cases, on the following day, in general only during few hours, depending on the dose): nausea and increased temperature
